According to US10981953B2, “Method for promoting expression of calreticulin, and synthetic peptide for use in method for promoting expression of calreticulin” (TOAGOSEI CO., LTD., priority 2013, dated 2021):

Tests used:
[1] = tested on: iPS cells (clone name 201B2); assay: Calreticulin expression-promoting activity in iPS cells, immunofluorescent antibody technique (Example 3); type: cell-based; settings: human iPS cells 201B2, peptide 10 μM, 5 days culture, confocal laser microscopy
Protocol: The calreticulin expression-promoting activity of the Samples 1 to 12 obtained in Example 1 was investigated. iPS cells (clone name 201B2, sometimes called simply 201B2 below) established from human fibroblasts were used as the test cells (source: Takahashi K et al., Cell, 131, 861-872 (2007)). These iPS cells were supplied by the Center for iPS Cell Research and Application, Kyoto University.
The test iPS cells (201B2) were seeded to a cell density of about 1×10^4 cells per well on matrigel-coated 8-well slides. Using mTeSR™ 1 medium (Stemcell Technologies) as the medium, the cells were cultured overnight in an incubator under conditions of 5% CO2, 37° C. Following this overnight culture, fresh mTeSR™ medium containing the peptides of Samples 1 to 12 in an amount yielding a peptide concentration of 10 μM was substituted, and the cells were further cultured for 5 days under the same conditions. Every day during this 5-day culture period, the medium was replaced with mTeSR™ 1 medium containing the peptides of Samples 1 to 12 in an amount yielding a peptide concentration of 10 μM. A peptide-free group was established as a control.
After completion of this culture, calreticulin expression in each test group was investigated by the immunofluorescent antibody technique (fluorescent immunostaining) using an anti-calreticulin antibody as in Example 2 except that a mixed solution of 1 vol. methanol and 1 vol. acetone (methanol:acetone=1:1 solution) was used to fix the cells, and the final concentration of the primary antibody was adjusted to 4×10^−3 mg/mL.
(§1) These figures are fluorescence micrographs examining calreticulin expression in each test group, and each combines (merges) a fluorescent image showing results for calreticulin expression in iPS cells as measured by the immunofluorescent antibody technique with an image showing nuclear staining by DAPI.

[2] = tested on: BXM14 cells, a cultured cell line of mouse ES cells; assay: Calreticulin expression-promoting activity in ES cells, immunofluorescent antibody technique (Example 4); type: cell-based; settings: mouse ES cells BXM14, peptide 50 μM, 3 days culture, confocal laser microscopy
Protocol: The calreticulin expression-promoting activity of the Samples 1 to 12 obtained in Example 1 was investigated. BXM14 cells, a cultured cell line of mouse ES cells (hereunder sometimes called “BXM14”), were used as the test cells. The details of the evaluation test were as follows.
The sample ES cells (BXM14) were seeded to a cell density of about 1×10^4 cells per well on 4-well slides. Using DMEM medium (Wako Pure Chemical, Cat No. 043-30085) containing 15% Knockout™ Serum Replacement (hereunder sometimes called “KSR”; Life Technologies, Cat No. 10828), 0.1 mM Non-essential Amino Acids Solution (hereunder sometimes called “NEAA”; Wako Pure Chemical, Cat No. 139-15651), 0.1 mM 2-mercaptoethanol (Sigma-Aldrich, Cat No. M7522) and 1000 units/mL of StemSure™ LIF, Mouse, recombinant, Solution (hereunder sometimes called “mLIF”; Wako Pure Chemical, Cat No. 199-116051), the cells were cultured overnight in an incubator under conditions of 5% CO2, 37° C. The DMEM medium containing KSR, NEAA, 2-mercaptoethanol and mLIF is also called simply “ES DMEM medium”. […]
as §1, with “figures (images)” for “figures”, “ES” for “iPS”

[3] = tested on: HeLaS3 cells; assay: Calreticulin expression-promoting activity in tumor cells, immunofluorescent antibody technique (Example 2); type: cell-based, human; settings: peptide 10 μM, 5 days culture, confocal laser microscopy
From the text: The calreticulin expression-promoting activity of the peptides of the Samples 1 to 12 obtained in Example 1 above was investigated. The sample cells were HeLaS3 cells (ATCC CCL2.2), a cultured cell line derived from human cervical cancer. These HeLaS3 cells (ATCC CCL2.2) are known as a genomically unstable cultured cell line, which has been confirmed to have multiple chromosome duplications or in other words chromosomal abnormalities (karyotypic abnormalities). The details of the evaluation test are as follows.
HeLaS3 cells were seeded on 8-well slides to a cell density of about 1×10^3 cells per well. […]
A diluted primary antibody solution comprising an anti-calreticulin monoclonal [FMC75] antibody (from mouse, Abcam, Cat. No. ab22683, Lot No. GR56669-4) as the primary antibody prepared with 1% BSA/PBS (−) (PBS (−) containing 1% BSA) to a final concentration of 2.5×10^−3 mg/mL was added to the culture containers of the HeLaS3 cells, and left overnight at 4° C. […] This was then sealed with a cover glass together with an enclosed liquid containing DAPI (4′,6-diamidino-2-phenylindole) (Life Technologies), and fluorescence was observed by confocal laser microscopy. […]

Sequence: KKRTLRKNDRKKR GPRPPSLEC (KKRTLRKNDRKKRGPRPPSLEC) [Sample 11]
- fluorescence of the fluorescent label indicating calreticulin (expressed amount of calreticulin) compared with the peptide-free group and Sample 12 [1]: strong fluorescence

Sequence: CRAKAGDPC [Sample 1]
- fluorescence of the fluorescent label indicating calreticulin (amount of calreticulin expression) compared with the peptide-free group and Sample 12 [2]: stronger fluorescence

Sequence: KKRTLRKNDRKKR CRAKAGDPC (KKRTLRKNDRKKRCRAKAGDPC) [Sample 9]
- fluorescence of the fluorescent label indicating calreticulin (expressed amount of calreticulin) compared with the peptide-free group and Sample 12 [1]: stronger fluorescence

Sequence: LAARAVRFSEKV [Sample 12]
- fluorescence of the fluorescent label indicating calreticulin (expressed amount of calreticulin) compared with the peptide-free group [3]: almost no fluorescence was detected

Sequence: KKRTLRKNDRKKR NPGASF (KKRTLRKNDRKKRNPGASF) [Sample 10]
- fluorescence of the fluorescent label indicating calreticulin (expressed amount of calreticulin) compared with the peptide-free group and Sample 12 [1]: strong fluorescence
